Test results reported in patent US20230242526A1 (Zentaur Therapeutics International Limited, priority 2020, published 2023).

Columns and labels:
[1] = Pharmacokinetic profiling in mouse (i.v. and i.g.); format: in vivo, male ICR mice; settings: male, ICR, plasma; for Vd: read-out: Vdss; for bioavailability: calculated by using the AUC0-t, read-out: F (bioavailability)
Protocol: (1). Kolliphor® HS 15 (formerly regarded as Solutol® HS 15) a non-ionic surfactant, was used as a solubilizer in preparing the parenteral formulations; (2). DMA (N,N-dimethylacetamide); (3). saline; and (4). Tween 80; (5) acetyl nitrile. […] To a glass flask was added 6.0 μmol of the test compound, and 0.265 mL of DMA. The glass flask was vortexed to allow the complete dissolution of the solid. Then 0.265 mL of 30% Solution HS 15 was added to the test compound solution in DMA and was vortexed to allow homogeneous mixing. Lastly, 2.12 mL of saline was added to the mixture in the glass flask. The flask was vortexed to allow homogeneous mixing. […] A clear liquid test sample iv formulation was obtained. An aliquot of 100 μL of the test sample iv formulation was placed into a 1.5 mL EP tube and was kept at 2-8° C. for future sample concentration quantification by HPLC. […] To a glass flask was added 27 μmol of the test compound and 4.047 mL of 0.5% MC with 01. % Tween 80. The flask and the mixture was vortexed followed by sonication for about 15 minutes to allow even distribution of the solids. A white suspension of the text sample was obtained. […] Ltd. Before receiving the test compound formulations, the animals were on fasting overnight. On the day of dosing, the animals were fed at 4h after the dosing. During the tests, the animals were free to drink water. Each test compound was tested in duplicate with different routes of administration: in one set of tests, mice received test compounds by iv injection route, and in the other set of tests, mice received the test compounds by IG administration. The schedules of the test for each mouse are illustrated in Table 5 below. [table] 100 μL blood sample was taken from the veins in animal eyelid. The whole blood sample was placed in anticoagulation tubes treated with EDTA-K2. The whole blood sample was centrifuged at 1500 g for 10 min. The plasma at the upper level was collected into test tubes. An aliquot of 10 μL of sample was added with 100 μL ACN which contains of Verapamil, 5 ng/mL, Glibenclamide, 50 ng/mL, Tolbutamide, 200 ng/mL and Diclofenac, 200 ng mL-1 for protein precipitation. The mixture was vortexed for 1 min, then centrifuged at 13000 rpm for 8 min. Then 70 μL of supernatant was added with 70 μL water, then vortexed for 10 min. An aliquot of 5 μL of the mixture was injected into the LC-MS/MS system. LC-MS/MS (API 4000: LC-MS-MS-001), column: […] Sample injection volume is 5 μL. Flow rate is 0.8 mL/min. The detection wavelength is set at 254 nm.

in vitro = settings: human, microsomes, pH 7.4, t1/2 human
Protocol: Human liver microsomes (cat. No. 452161), mouse liver microsomes (cat. No. 452701), were purchased from Corning.
Samples were analyzed using LC-MS/MS using a SCIEX API 4000 mass spectrometer coupled with Agilent HPLC analytical system. After separation on a ZORBAX XDB-C18 column (5 μm, 50×2.1 mm, column No. 50-282) using an acetonitrile-water gradient system, peaks were analyzed by mass spectroscopy (MS) using ESI ionization in Q1 and Q3 scan mode.
The LC and MS are all controlled by Analyst software.
The liver microsomes were incubated with 1.0 μM of the testing compound at 37° C. The incubation mixture contained 100 mM PBS buffer (pH=7.4), 3 mM MgCl2 and 1 mM NADPH. The concentration of liver microsome in the incubation mixture was 0.5 mg/mL for testing compound, and 0.2 mg/mL for MDZ and the total volume is 0.2 mL. […] Aliquots were withdrawn at time points of 0 min, 5 min and 20 min for MDZ. The reactions were terminated by transferring the aliquots to a methanol solution containing the internal standard […] for analytical quantification. The quenched samples were analyzed by LC-MS/MS. The incubations were carried out in duplicates. The metabolic stability of the testing compounds by the liver microsomes of human and mice is expressed as elimination half-life (t1/2). The results are shown as the means of duplicate determinations±SD.

[2] = tested on: human breast squamous HCC1806 cell line; experiment: CyQUANT Direct cell proliferation assay, HCC1806; format: cell-based; settings: HCC1806, 168 h, 7 days
From the text: The human ovarian carcinoma OVCAR3 cell line (ATCC HTB-161™) or human breast squamous HCC1806 cell line (ATCC CRL 2335) were obtained from American Type Culture Collection (ATCC), and maintained in culture media according to the supplier's specification.
The CyQUANT® Direct Cell Proliferation Assay Kit (Invitrogen™, catalog No. G35012) was utilized to test the inhibitory activities of the CDK2 inhibitors described in this disclosure against OVCAR3 or HCC1806 tumor cells.
CyQUANT® Direct Cell Proliferation Assay: The spent medium from the purchased tumor cell culture plate was removed and the tumor cells were washed with PBS buffer twice. Trypsin (VWR catalog No. 0458-25G) was added to digest the tumor cells until tumor cells appeared round shaped and to dissociate adherent cells from the plate wall in which they are being cultured. Then RPMI-1640 media (HCC1806, Gibco™ catalog No, A10491-01) with 10% fetal bovine serum (FBS) (Hyclone™ catalog No. SV30160.03), or RPMI-1640 media (OVCAR-3, Gibco™ catalog No. 10370-021) with 20% FBS and 0.01 mg/mL insulin was added to stop the trypsin digestion reaction. The tumor cells were lightly agitated with a liquid transfer pipette to cause tumor cells suspended in the culture media. The cells were counted. The complete medium was used to prepare tumor cell suspension.
OVCAR3 or HCC1806 cells were seeded at 40 μL/well in 384-well plates in growth media containing FBS and cultured 24 hours in the incubator at 37° C., 5% CO2. […] Compound solutions were added by Agilent Bravo liquid handler. […] The control wells contained the growth medium having 0.1% DMSO. Cells were incubated at 37° C., 5% CO2 for 7 days.
CYQUANT Direct Cell Proliferation Assay (Molecular Probes, Eugene, Oreg.) was then performed following manufacturer's instructions to prepare the detection reagents. 50 μL of detection reagent was aliquot and added to each well and the cells were incubated at 37° C. for 1 hr.
The cell culture plates were placed on TECAN M1000 microplate reader to detect the fluorescence intensity at 508 nm excitation and 527 nm emission wavelengths. Graphpad Prism 6.0 software was used for data processing, preparing cell growth curve, calculating percentage inhibition on cell growth. IC50 values were calculated by concentration-response curve fitting utilizing a four-parameter analytical method using GraphPad Prism software.

| AUC(0-t) ([1]; iv, i.v. 5 mg/kg) | C0 ([1]; iv, i.v. 5 mg/kg) | clearance ([1]; iv, i.v. 5 mg/kg) | half-life ([1]; iv, i.v. 5 mg/kg) | Vd ([1]; iv, i.v. 5 mg/kg) | AUC(0-t) ([1]; po, i.g. 30 mg/kg) | Cmax ([1]; po, i.g. 30 mg/kg) | Tmax ([1]; po, i.g. 30 mg/kg) | half-life ([1]; po, i.g. 30 mg/kg) | bioavailability ([1]; po, i.g. 30 mg/kg) | half-life at 1 μM (in vitro) | IC50 [2] | SMILES |
| --- | --- | --- | --- | --- | --- | --- | --- | --- | --- | --- | --- | --- |
| 1360 ng·h/mL | 5020 ng/mL | 61.2 mL/min/kg | 0.367 h | 1 L/kg | 1190 ng·h/mL | 1040 ng/mL | 0.25 h | 2.76 h | 14.6% | 33.3 h | 52.1 nM | C[C@@]1(O)CCC[C@H]1n1c(=O)c(C(F)F)cc2cnc(NC3CCN(S(C)(=O)=O)CC3)nc21 [Comp. 5, (−)-6-(difluoromethyl)-8-((1R,2R)-2-hydroxy-2-methylcyclopentyl)-2-((1-(methylsulfonyl)piperidin-4-yl)amino)pyrido[2,3-d]pyrimidin-7(8H)-one, reference compound] |
| 967 ng·h/mL | 8300 ng/mL | 86.1 mL/min/kg | 0.195 h | 0.611 L/kg | 245 ng·h/mL | 211 ng/mL | 0.25 h | 2.24 h | 4.2% | 7.7 h | 41.5 nM | Cc1cc2cnc(NC3CCN(S(C)(=O)=O)CC3)nc2n([C@@H]2CCC[C@@]2(C)O)c1=O [Comp. 4, (−)-8-(2-hydroxy-2-methylcyclopentyl)-6-methyl-2-((1-(methylsulfonyl)piperidin-4-yl)amino)pyrido[2,3-d]pyrimidin-7(8H)-one, reference compound] |
|  |  |  |  |  |  |  |  |  |  | 14.4 h | 75 nM | [2H]C(F)(F)c1cc2cnc(NC3CCN(S(C)(=O)=O)CC3)nc2n([C@@H]2CCC[C@@]2(C)O)c1=O [Comp. 28, (−)-6-(difluoromethyl-d)-8-((1R,2R)-2-hydroxy-2-methylcyclopentyl)-2-((1-(methylsulfonyl)piperidin-4-yl)amino)pyrido[2,3-d]pyrimidin-7(8H)-one] |
| 1290 ng·h/mL | 7420 ng/mL | 64.7 mL/min/kg | 0.33 h | 0.703 L/kg | 605 ng·h/mL | 522 ng/mL | 0.25 h | 1.72 h | 7.8% | 28.9 h | 35 nM | [2H]C([2H])([2H])c1cc2cnc(NC3CCN(S(C)(=O)=O)CC3)nc2n([C@@H]2CCC[C@@]2(C)O)c1=O [Comp. 37, (−)-8-((1R,2R)-2-hydroxy-2-methylcyclopentyl)-6-(methyl-d3)-2-((1-(methylsulfonyl)piperidin-4-yl)amino)pyrido[2,3-d]pyrimidin-7(8H)-one] |
